According to US9284366B2, “Anti-acetylated huntingtin antibodies and uses therof” (The General Hospital Corporation, priority 2006, dated 2016):

Experiments:
[1] = system: total Htt and acetyl-Htt level in Neuro2a cells; experiment: Proteasome and autophagy inhibitors in Neuro2a cells transfected with Htt590-97Q (western blot); format: cell-based; details: lactacystin 10 μM or 3-methyladenine 10 mM for 12 hrs
Description: Cell Culture and Transfection. Neuro2a, STHdh^Q7/Q7, and COS-7 cells were transfected using Lipofectamine 2000. For HDAC inhibition, TSA (1 μM) and NAM (5 mM) were applied 6 hrs and 16 hrs, respectively, prior to harvest. Unless indicated otherwise, cells were harvested 24 hrs after transfection. For the experiments with proteasome and autophagy inhibitors, Neuro2a cells were treated with lactacystin (10 μM) or 3-methyladenine (10 mM) for 12 hrs. For assessment of LC3 conversion, immortalized striatal cells (STHdh^Q7/Q7) were cultured as described (29), transfected for 48 hrs and treated with TSA (4 μM) and NAM (5 mM) 15 hrs prior to harvest.
To examine which of these pathways may be responsible for clearance of acetylated Htt polypeptide, Neuro2a cells were transfected with Htt590-97Q and treated with inhibitors of proteasome or autophagy. […] In order to further examine whether acetylated Htt polypeptide leads to activation of macroautophagy, LC3 conversion was assessed (17, 18). LC3, a mammalian homologue of yeast Atg8, is a diffusely distributed protein that upon activation by mammalian Atg7 undergoes posttranslational modification resulting in the product LC3-II, which firmly associates with the autophagosomal membrane. The amount of LC3-II, which migrates faster than LC3-I on SDS-PAGE, provides a reliable measure of autophagic activity (17). In order to assess autophagic activity in relation to Htt acetylation, immortalized striatal cells (STHdh^Q7/Q7) were transfected with Htt590-97Q or acetylation-resistant Htt590-97Q-KR, treated with TSA and NAM and analyzed by western blotting with anti-LC3 antibody (FIG. 3B).

Drosophila model of HD = details: pharmacological inhibition of HDAC; cited from earlier work
C. elegans neurons = details: dose-dependent manner; cited from earlier work

Cn1cnc(N)c2ncnc1-2 [3-methyladenine]
acetyl-Htt level [1]: accumulation

O=C(CCCCCCC(=O)Nc1ccccc1)NO [SAHA, Suberoylanilide hydroxamic acid]
lethality and degeneration in Drosophila model of HD (Drosophila model of HD): rescue the lethality and degeneration

CC(/C=C/C(=O)NO)=C\[C@@H](C)C(=O)c1ccc(N(C)C)cc1 [TSA, trichostatin A]
degeneration of C. elegans neurons induced by mutant Htt (C. elegans neurons): reduced the degeneration

CC(=O)N[C@@H](CSC(=O)[C@]1([C@@H](O)C(C)C)NC(=O)[C@H](C)[C@@H]1O)C(=O)O [lactacystin]
acetyl-Htt level [1]: no significant effect
total Htt level [1]: no significant effect
